Measurements reported in PMC10675840, “Structure-function analysis of ceTIR-1/hSARM1 explains the lack of Wallerian axonal degeneration in C. elegans” (Cell reports, 2023).
Changes are numbered by the printed parent chain.

Experiments:
Experiment in all cases: HPLC NAD+ consumption, Michaelis-Menten fit
Type in all cases: biochemical
Conditions in all cases: […] C, […] min, pH […]
ceTIR-1 [1] = target: T1, ceTIR-1 (Caenorhabditis elegans, UniProt Q86DA5, D888E)
T1 construct: gene tir-1; near-intact ARM-SAM-SAM-TIR, residues 162-872 (HMD...QQR), N-terminal 6xHis + TEV site, HEK293F expression, mostly 9-mer ring, partly dissociated
T1 sequence (Q86DA5 216-926 D888E): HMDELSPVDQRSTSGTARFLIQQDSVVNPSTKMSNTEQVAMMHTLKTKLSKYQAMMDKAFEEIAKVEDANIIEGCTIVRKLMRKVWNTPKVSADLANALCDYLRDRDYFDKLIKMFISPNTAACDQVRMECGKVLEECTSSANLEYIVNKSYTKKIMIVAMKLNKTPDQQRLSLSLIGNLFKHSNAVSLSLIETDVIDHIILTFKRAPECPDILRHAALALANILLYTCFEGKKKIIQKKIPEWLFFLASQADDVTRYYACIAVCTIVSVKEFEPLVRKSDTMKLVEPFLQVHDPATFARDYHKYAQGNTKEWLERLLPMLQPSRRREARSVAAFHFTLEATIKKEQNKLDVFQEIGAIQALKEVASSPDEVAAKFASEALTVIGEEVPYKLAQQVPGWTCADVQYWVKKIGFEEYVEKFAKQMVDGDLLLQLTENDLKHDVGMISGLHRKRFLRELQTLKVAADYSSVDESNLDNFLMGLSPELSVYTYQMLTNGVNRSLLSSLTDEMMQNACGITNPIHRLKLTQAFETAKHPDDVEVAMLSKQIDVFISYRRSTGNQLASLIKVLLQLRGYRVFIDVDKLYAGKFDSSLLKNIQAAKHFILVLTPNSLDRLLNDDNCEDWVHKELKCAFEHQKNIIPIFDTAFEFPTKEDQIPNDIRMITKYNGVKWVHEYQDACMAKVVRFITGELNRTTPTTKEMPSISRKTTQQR

ceTIR-1 [2] = target: T2, ceTIR-1 (Caenorhabditis elegans, UniProt Q86DA5, F863W)
T2 construct: gene tir-1; near-intact ARM-SAM-SAM-TIR, residues 162-872 (HMD...QQR), N-terminal 6xHis + TEV site, HEK293F expression, mostly 9-mer ring, partly dissociated
T2 sequence (Q86DA5 216-926 F863W): T1 sequence (Q86DA5 216-926 D888E) with F648W, E673D

ceTIR-1 [3] = target: T3, ceTIR-1 (Caenorhabditis elegans, UniProt Q86DA5, R828K)
T3 construct: gene tir-1; near-intact ARM-SAM-SAM-TIR, residues 162-872 (HMD...QQR), N-terminal 6xHis + TEV site, HEK293F expression, mostly 9-mer ring, partly dissociated
T3 sequence (Q86DA5 216-926 R828K): T1 sequence (Q86DA5 216-926 D888E) with R613K, E673D

NC(=O)c1ccc[n+]([C@@H]2O[C@H](COP(=O)(O)OP(=O)(O)OC[C@H]3O[C@@H](n4cnc5c(N)ncnc54)[C@H](O)[C@@H]3O)[C@@H](O)[C@H]2O)c1 [NAD^+]
Km (ceTIR-1 [1]): none of these substitutions had any significant effect on Km
Km (ceTIR-1 [2]): none of these substitutions had any significant effect on Km
Km (ceTIR-1 [3]): none of these substitutions had any significant effect on Km
